From BindingDB's records for PubMed 8100350 (University of Pennsylvania, 1993)
Where a SMILES comes first, the peptide text is derived from it. Bridges are numbered along the chain shown (N, C = ends). [ ]: non-standard residue; d: D form. The star is where a group is joined. NH(1-naphthylmethyl) = c1ccc2c(CN*)cccc2c1; dNMeF = CN[C@H](Cc1ccccc1)C(=O)O; dNMeA = CN[C@H](C)C(=O)O; Aoc = NCCCCCCCC(=O)O; Ahp = NCCCCCCC(=O)O; Ahx = NCCCCCC(=O)O; Bn = c1ccc(C*)cc1

How the values were obtained:
[1] = target: Somatostatin receptor type 1 (Homo sapiens, UniProt P30872)
Chain of Somatostatin receptor type 1 (P30872 whole entry): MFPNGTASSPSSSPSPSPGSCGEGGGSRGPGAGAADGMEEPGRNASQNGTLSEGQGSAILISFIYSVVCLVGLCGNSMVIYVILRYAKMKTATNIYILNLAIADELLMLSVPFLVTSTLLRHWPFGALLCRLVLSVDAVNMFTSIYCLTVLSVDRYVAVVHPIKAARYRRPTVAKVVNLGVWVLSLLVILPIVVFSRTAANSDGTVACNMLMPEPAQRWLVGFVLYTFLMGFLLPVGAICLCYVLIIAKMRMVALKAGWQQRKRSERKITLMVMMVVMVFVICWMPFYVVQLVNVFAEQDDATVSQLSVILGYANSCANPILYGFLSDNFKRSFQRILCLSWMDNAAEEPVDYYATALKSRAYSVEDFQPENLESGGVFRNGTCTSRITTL

[2] = target: Somatostatin receptor type 2 (Mus musculus, UniProt P30875)
Chain of Somatostatin receptor type 2 (P30875 whole entry): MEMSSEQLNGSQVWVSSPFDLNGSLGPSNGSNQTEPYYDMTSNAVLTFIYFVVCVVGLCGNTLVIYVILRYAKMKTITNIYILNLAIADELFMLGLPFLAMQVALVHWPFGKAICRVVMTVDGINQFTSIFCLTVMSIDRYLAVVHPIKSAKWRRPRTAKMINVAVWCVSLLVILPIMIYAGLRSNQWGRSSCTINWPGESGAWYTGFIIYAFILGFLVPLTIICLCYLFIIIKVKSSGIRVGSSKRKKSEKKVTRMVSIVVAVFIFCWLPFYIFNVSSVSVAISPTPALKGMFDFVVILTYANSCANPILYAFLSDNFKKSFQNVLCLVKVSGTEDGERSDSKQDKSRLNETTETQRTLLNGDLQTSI

[3] = target: Somatostatin receptor type 3 (Mus musculus, UniProt P30935)
Chain of Somatostatin receptor type 3 (P30935 whole entry): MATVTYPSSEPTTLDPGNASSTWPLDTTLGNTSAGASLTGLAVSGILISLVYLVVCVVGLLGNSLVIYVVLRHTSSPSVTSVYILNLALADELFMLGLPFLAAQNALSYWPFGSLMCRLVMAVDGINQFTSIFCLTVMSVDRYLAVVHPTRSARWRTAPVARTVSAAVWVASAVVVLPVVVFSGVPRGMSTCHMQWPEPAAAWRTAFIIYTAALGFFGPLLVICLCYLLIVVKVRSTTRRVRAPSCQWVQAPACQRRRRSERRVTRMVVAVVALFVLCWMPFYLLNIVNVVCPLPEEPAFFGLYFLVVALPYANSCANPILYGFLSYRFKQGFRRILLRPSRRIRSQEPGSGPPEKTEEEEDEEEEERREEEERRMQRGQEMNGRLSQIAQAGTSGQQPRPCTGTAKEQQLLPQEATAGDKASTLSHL

| Ki [1] | Ki [2] | Ki [3] | Compound |
| --- | --- | --- | --- |
| 1000 nM | 26 nM | 18.9 nM | C[C@H](O)[C@H]1NC(=O)[C@H](CCCCN)NC(=O)[C@@H](Cc2c[nH]c3ccccc23)NC(=O)[C@@H](Cc2ccccc2)NC(=O)[C@@H](C)N(C)C(=O)[C@@H](Cc2ccccc2)N(C)C1=O [N-Methylcyclo(D-Ala-D-Phe-D-Trp-L-Lys-D-Thr-N-methyl-D-Phe-)] (cyclo(K[dT][dNMeF][dNMeA][dF][dW])) |
| 1000 nM | 0.002 nM | 112 nM | NCCCCC1NC(=O)C(Cc2c[nH]c3ccccc23)NC(=O)C(Cc2ccc(O)cc2)NC(=O)C(NC(=O)C(N)Cc2ccccc2)CSSCC(C(=O)NCc2cccc3ccccc23)NC(=O)C(CO)NC1=O (centres undefined) [NC4-28B] (H-FCYWKSC-{NH(1-naphthylmethyl)}; disulfide 2-7; configuration not given here) |
| 80 nM | 1000 nM | 214 nM | NCCCC[C@@H]1NC(=O)[C@@H](Cc2c[nH]c3ccccc23)NC(=O)[C@H](Cc2ccccc2)NC(=O)CCCCCCNC(=O)[C@H](COCc2ccccc2)NC1=O [c[Aha-Phe-D-Trp-Lys-Ser(Bzl)]] (cyclo([Ahp]F[dW]KS(Bn))) |
| 141 nM | 1000 nM | 107 nM | C[C@@H](OCc1ccccc1)[C@@H]1NC(=O)[C@H](CCCCN)NC(=O)[C@@H](Cc2c[nH]c3ccccc23)NC(=O)[C@H](Cc2ccccc2)NC(=O)CCCCCCNC1=O [c[Aha-Phe-D-Trp-Lys-Thr(Bzl)]] (cyclo([Ahp]F[dW]KT(Bn))) |
| 1000 nM | 1000 nM | 1000 nM | C[C@@H](O)[C@@H]1NC(=O)[C@H](CCCCN)NC(=O)[C@@H](Cc2c[nH]c3ccccc23)NC(=O)[C@H](Cc2ccccc2)NC(=O)CCCCCCNC1=O [c[Aha-Phe-D-Trp-Lys-Thr]] (cyclo([Ahp]F[dW]KT)) |
| 183 nM | 1000 nM | 73 nM | C[C@@H](OCc1ccccc1)[C@@H]1NC(=O)[C@H](CCCCN)NC(=O)[C@@H](Cc2c[nH]c3ccccc23)NC(=O)[C@H](Cc2ccccc2)NC(=O)CCCCCNC1=O [c[Ahx-Phe-D-Trp-Lys-Thr(Bzl)]] (cyclo([Ahx]F[dW]KT(Bn))) |
| 700 nM | 1000 nM | 101 nM | C[C@@H](OCc1ccccc1)[C@@H]1NC(=O)[C@H](CCCCN)NC(=O)[C@@H](Cc2c[nH]c3ccccc23)NC(=O)[C@H](Cc2ccccc2)NC(=O)CCCCCCCNC1=O [c[Aoc-Phe-D-Trp-Lys-Thr(Bzl)]] (cyclo([Aoc]F[dW]KT(Bn))) |
| 1000 nM | 356 nM | 244 nM | C[C@@H]1NC(=O)[C@@H]2CCCN2C(=O)[C@H](Cc2ccccc2)NC(=O)[C@H]([C@@H](C)O)NC(=O)[C@H](CCCCN)NC(=O)[C@@H](Cc2c[nH]c3ccccc23)NC1=O [cyclo(Pro-Ala-Trp-Lys-Thr-Phe)] (cyclo(A[dW]KTFP)) |
